Earlier results, collected in patent US11229595B2, “Skin barrier preparation and method therefor” (Johnson & Johnson Consumer Inc., priority 2019, dated 2022).

Test system: skin
Details: eight volunteers, four compounds compared, patches during 24 hours

## CCCCCCCCC(=O)O [nonanoic acid]
  increase of TEWL: increased the least TEWL

## CN(C)CCCN1c2ccccc2CCc2ccccc21 [imipramine]
  increase of TEWL: increased the least TEWL
